Structures can show the parent of a compound that is named as a salt.
How the values were obtained:
[1] = system: isolated basilar artery; assay: Relaxation of isolated basilar artery contracted by 50 mM KCl; type: cell-based, Mongrel dogs; conditions: Canis lupus familiaris, 50 mM KCl contraction
Description: (§1) Mongrel dogs of either sex (body weight 10-17 kg) were killed by bleeding under anesthetization with pentobarbital sodium (tradename: Nembutai ® Abbott Co., USA). Thereafter, the basilar and femoral arteries were extracted and attached blood and connective tissues were carefully removed in a dish filled with Krebs bicarbonate solution (composition: NaCl 117.7 mM, KC1 4.7 mM, CaCl2 2.5 mM, MgSo4 1.2 mM, glucose 10 mM, NaHCO3 24.4 mM). Thereafter, ring preparations were made therefrom. This preparation was suspended in a bathing tube of 10 ml filled with Krebs bicarbonate solution aerated with 95 % 02 and 5 % C02.
(§2) Then, samples of basilar and femoral arteries were contracted by application of 50 mM KC1. After confirming that the contraction was sustained, (a) compound (I) (erythro form) lactate, (b) compound (I) (threo form) lactate and (c) ifenprodil; [2-(4-benzyl- piperidino-l-(4-hydroxyphenyl)propane-l-ol] tartrate were, respectively, administered as test compounds and the dose-relaxation response was examined.
(§3) A strain gauge transducer (model SB-lT manufactured by Nihon Koden Co.) was employed for recording of change of tension and isometric contraction was recorded on a recorder (model QPD 53 made by Hitachi Ltd . ) .

[2] = system: isolated femoral artery; assay: Relaxation of isolated femoral artery contracted by 50 mM KCl; type: cell-based, Mongrel dogs; conditions: Canis lupus familiaris, 50 mM KCl contraction
Description: as §1, §2, §3

Compound: CC(C(O)c1ccc(O)cc1)N1CCC(Cc2ccccc2)CC1 (stereo not drawn) [Ifenprodil tartrate]
- inhibition at 50 µM ([1]; 5 x 10^-5 M, mean, n = 4 - 5): 96.6%
- inhibition at 100 µM ([1]; 10^-4 M, mean, n = 4 - 5): 100%
- inhibition at 10 µM ([1]; 10^-5 M, mean, n = 4 - 5): 44.1%
- inhibition at 1 µM ([1]; 10^-6 M, mean, n = 4 - 5): 5.1%
- inhibition at 0.1 µM ([1]; 10^-7 M, mean, n = 4 - 5): 0.9%
- EC50 ([1]; relaxation of isolated basilar artery, read-out: ED50 (the source's name)): 11 µM
- inhibition at 50 µM ([2]; 5 x 10^-5 M, mean, n = 4 - 5): 49.8%
- inhibition at 100 µM ([2]; 10^-4 M, mean, n = 4 - 5): 75.9%
- inhibition at 10 µM ([2]; 10^-5 M, mean, n = 4 - 5): 2.8%
- inhibition at 1 µM ([2]; 10^-6 M, mean, n = 4 - 5): 0%
- inhibition at 0.1 µM ([2]; 10^-7 M, mean, n = 4 - 5): 0%
- EC50 ([2]; relaxation of isolated femoral artery, read-out: ED50 (the source's name)): 52 µM

From patent EP0232423A1, “CIRCULATION IMPROVING AGENT” (GRELAN PHARMACEUTICAL CO., LTD., priority 1985, dated 1987)
